Test results reported in article PMC4421842 (Nature Communications, 2015).
Values after ≈ are worked out from the molar mass of the structure shown. Values joined by “and” are separate entries in the source; they are usually repeats but may differ in a detail not shown here. Identical values can stand only once. “Also recorded” adds a separate entry of the source. Like-named read-outs stand apart in the source and are kept apart here.

Legend:
[1] = system: WT S. aureus (ATCC 29213, WT); assay: microbe, parasite or virus in culture; format: cell-based; details: WT GyrA and WT ParC, three independent replicates
[2] = system: MRSA clinical isolates; assay: microbe, parasite or virus in culture; format: cell-based, S. aureus; details: for MIC: Staphylococcus aureus, MRSA, read-out: MIC
Description: (§1) MRSA and P. aeruginosa isolates were from Cubist Pharmaceuticals (Lexington, MA). VRE isolates were from a previously published collection. E. coli strains were obtained either from ATCC or Professor Cari Vanderpool (UIUC). A. baumannii isolates were obtained from Dr John Quale[51].
Susceptibility testing was performed in triplicate, using the microdilution broth method as outlined by the Clinical and Laboratory Standards Institute[52]. Mueller Hinton (MH) broth was used.

[3] = system: E. faecalis; assay: microbe, parasite or virus in culture; format: cell-based; details: Enterococcus faecalis, E. faecalis
[4] = system: E. faecium; assay: microbe, parasite or virus in culture; format: cell-based; details: Enterococcus faecium, E. faecium
[5] = system: Ent. Spp.; assay: MIC, microdilution broth, Ent. Spp. VRE clinical isolate; format: cell-based; details: Enterococcus, C28036, gyrA Ser83Ile, parC Ser80Ile
Description: as §1
(§2) Mueller Hinton (MH) broth was used.

[6] = system: VRE clinical isolates; assay: MIC, VRE clinical isolates panel (summary by GyrA mutation); format: cell-based, Enterococcus; details: panel of VRE clinical isolates (n=22)
Description: as §1, §2

[7] = system: E. coli; assay: microbe, parasite or virus in culture; format: cell-based; details: Escherichia coli
Description: as §1, §2

[8] = system: P. aeruginosa; assay: MIC, microdilution broth, P. aeruginosa; format: cell-based
Description: as §1, §2

[9] = system: A. baumannii; assay: MIC, microdilution broth, A. baumannii; format: cell-based; details: Acinetobacter baumannii
Description: as §1, §2

[10] = target: T1, WT E. coli DNA gyrase (Escherichia coli, UniProt P0AES4+P0AES6); format: biochemical; details: DNA cleavage assay
T1 construct: His tag (pTRCHisA vector; purified on Ni-NTA); made in house; host or cells: E. coli One Shot BL21 Star (DE3)

[11] = target: T2, S83R E. coli DNA gyrase (Escherichia coli, UniProt P0AES4+P0AES6, S83R); format: biochemical; details: DNA cleavage assay
T2 construct: His tag (pTRCHisA vector; purified on Ni-NTA); made in house; host or cells: E. coli One Shot BL21 Star (DE3)

[12] = system: resistant strains of ATCC 29213; assay: microbe, parasite or virus in culture; format: cell-based, S. aureus
[13] = system: S. aureus (ATCC 29213); assay: Resistant mutant generation (resistance frequency); format: cell-based; details: low-level CIP-resistant strain 29213-C1
[14] = Pharmacokinetic assessment; format: in vivo, C57BL/6 mice; details: for Cmax: read-out: Cmax (peak serum concentration)
Description: (§3) The animal studies (PK, in-vivo toxicity and in-vivo efficacy) were carried out in strict accordance with the recommendations in the Guide for the Care and Use of Laboratory Animals of the National Institutes of Health. […] In these studies, 10- to 12-week-old female C57BL/6 mice purchased from Charles River were used. DNM, DNM-2 and DNM-3 were formulated as slurries at 8.3 mg ml^−1 in 25% Cremophor RH40/water (v/v). Before beginning the pharmacokinetic assessment, mice were first tested for their ability to tolerate the DNM, DNM-2 and DNM-3 at 50 mg kg^−1 (p.o.). […] At specified time points, mice were killed and blood was collected, centrifuged and the serum was frozen at −80 °C until analysis. The proteins in a 50-μl aliquot of serum were precipitated by the addition of 50 μl of acetonitrile and the sample was centrifuged to remove the proteins. Serum concentrations of DNM, DNM-2 and DNM-3 were determined by HPLC. PK parameters were determined using GraphPad Prism Version 5.00 for Windows.

[15] = Tolerability in mice (maximal tolerated dose); format: in vivo
Description: as §3

[16] = physchem; details: pH 7.4
Description: Three independent replicates of each compound were performed.

[17] = system: FQR MRSA (NRS3); assay: In-vivo efficacy, mouse sepsis model; details: 50 mg kg^−1 oral gavage once daily for 10 days; n=15; Kaplan–Meier, log rank survival test
[18] = female, C57BL/6, mouse, in vivo, C57/BL6 mice, 50 mg kg-1 oral gavage, serum

For CCn1c(=O)cc(C)c2cc3c(C)cc(=O)n4c3c(c21)OC4 [DNM-2], the “MIC against S. aureus 29213” value ([1]; ATCC 29213) was 8 µg/mL (≈ 27 µM), the MIC ([1]; Staphylococcus aureus, ATCC29213, ATCC 29213, read-out: MIC against S. aureus 29213) was 8 µg/mL (≈ 27 µM) and the MIC ([2]; strain SAU.1118) was 2 µg/mL (≈ 6.75 µM). The MIC ([2]; strain SAU.2996) was 0.5 µg/mL (≈ 1.69 µM), the MIC ([2]; strain SAU.3017) was 4 µg/mL (≈ 13.5 µM) and the MIC ([2]; strain SAU.3021) was 0.063 µg/mL (≈ 0.213 µM). For the same compound, the MIC ([2]; strain SAU.3024) was 0.125 µg/mL (≈ 0.422 µM), the MIC ([2]; strain SAU.3025) was 0.063 µg/mL (≈ 0.213 µM) and the MIC ([2]; strain SAU.42) was 2 µg/mL (≈ 6.75 µM). It also gave an MIC ([2]; strain SAU.555) of 0.25 µg/mL (≈ 0.844 µM), an MIC ([2]; strain SAU.669) of 0.063 µg/mL (≈ 0.213 µM) and an MIC ([2]; strain SAU.846) of 0.25 µg/mL (≈ 0.844 µM). The “Sensitivity of MRSA clinical isolates” value ([2]; panel of MRSA clinical isolates (n=21)) was “sensitive”, the MIC ([3]; ATCC19433, ATCC 19433, gyrA WT, parC WT) was 8 µg/mL (≈ 27 µM) and the MIC ([3]; ATCC29212, ATCC 29212, gyrA WT, parC WT) was 8 µg/mL (≈ 27 µM). It also gave an MIC ([3]; C21667, gyrA Ser83Ile, parC Ser80Ile) of 0.5 µg/mL (≈ 1.69 µM), an MIC ([3]; S206, gyrA Ser83 Arg, parC Ser80Ile) of 2 µg/mL (≈ 6.75 µM) and an MIC ([4]; C21190, gyrA Ser83 Arg, parC Ser80Ile) of 8 µg/mL (≈ 27 µM). It also gave an MIC ([4]; C27282, gyrA Ser83 Arg, parC Ser80Arg) of 4 µg/mL (≈ 13.5 µM), an MIC ([4]; C27569, gyrA Ser83Ile, parC Ser80Ile) of 0.25 µg/mL (≈ 0.844 µM) and an MIC ([4]; D1, gyrA Ser83Ile, parC Ser80Ile) of 0.5 µg/mL (≈ 1.69 µM). The MIC ([4]; S34, gyrA Ser83Ile, parC Ser80 Arg) was 1 µg/mL (≈ 3.37 µM), the MIC ([4]; S51, gyrA Ser83Ile, parC Ser80Ile) was 0.5 µg/mL (≈ 1.69 µM) and the MIC ([4]; S122, gyrA Ser83Ile, parC Ser80Ile) was 0.5 µg/mL (≈ 1.69 µM). For the same compound, the MIC ([4]; S226, gyrA Ser83Ile, parC Ser80Ile) was 0.5 µg/mL (≈ 1.69 µM), the MIC ([4]; S235, gyrA Ser83Ile, parC Ser80Ile) was 0.5 µg/mL (≈ 1.69 µM) and the MIC ([4]; S344, gyrA Ser83Ile, parC Ser80Ile) was 0.5 µg/mL (≈ 1.69 µM). For the same compound, the MIC ([4]; S557, gyrA Ser83Ile, parC Ser80Ile) was 0.25 µg/mL (≈ 0.844 µM), the MIC ([4]; SL152, gyrA Ser83Ile, parC Ser80Ile) was 0.5 µg/mL (≈ 1.69 µM) and the MIC ([4]; U63, gyrA Ser83 Arg, parC Ser80Ile) was 4 µg/mL (≈ 13.5 µM). It also gave an MIC ([4]; U275, gyrA Ser83Cys Glu87Gly, parC Ser80Ile) of 2 µg/mL (≈ 6.75 µM), an MIC ([4]; U464, gyrA Ser83 Arg, parC Ser80Ile) of 2 µg/mL (≈ 6.75 µM) and an MIC ([4]; U503, gyrA Ser83 Arg, parC Ser80Ile) of 4 µg/mL (≈ 13.5 µM). For the same compound, the MIC ([4]; U563, gyrA Ser83 Arg, parC Ser80Ile) was 2 µg/mL (≈ 6.75 µM), the MIC [5] was 0.5 µg/mL (≈ 1.69 µM) and the “Sensitivity of VRE clinical isolates” value [6] was “sensitive”. It also gave an MIC ([7]; ATCC25922, E. coli ATCC 25922, gyrA none, parC none) of over 24 µg/mL, an MIC ([7]; MG1655, E. coli MG1655) of over 24 µg/mL and an MIC ([7]; MG1655, E. coli MG1655 ∆AcrB (permeabilized strain)) of 2 µg/mL (≈ 6.75 µM). For the same compound, the MIC ([8]; PA1586 (CIP resistant clinical isolate)) was over 24 µg/mL, the MIC ([8]; Pseudomonas aeruginosa, P. aeruginosa PAO1, read-out: MIC) was over 24 µg/mL and the MIC ([8]; Pseudomonas aeruginosa, read-out: MIC) was over 24 µg/mL. The MIC [9] was over 24 µg/mL, the MIC ([9]; ATCC19606, A. baumannii ATCC 19606, read-out: MIC) was over 24 µg/mL and the “inhibition of WT DNA gyrase (increase in L or OC DNA)” value [10] was “poor inhibitors of WT DNA gyrase”. The “inhibition of S83R DNA gyrase” value [11] was “buildup of OC DNA similar to that seen with S83L DNA gyrase only at a slightly higher concentration or longer time points”, the MIC ([12]; Staphylococcus aureus, ATCC29213, high-level CIP-resistant strains, second step, S84L mutation in GyrA) was 0.06 to 0.12 µg/mL (≈ 0.202 to 0.405 µM) and the MIC ([12]; low-level CIP-resistant strains, first step, WT gyrA, mutation in ParC (for example E84K or S80F)) was “not sensitive”. For the same compound, the “resistant colonies on treatment” value [13] was “resistant colonies were observed”, the AUC [14, 18] was 44000 ng·h/mL and the Tmax [14, 18] was 1.2 h. The half-life [14, 18] was 0.9 h, the Cmax ([14]; female, C57BL/6, mouse, in vivo, mice, 50 mg kg^−1 oral dose, serum) was 42.6 µM and the Cmax ([14]; female, C57BL/6, mouse, mice, 50 mg kg^−1 oral dose, serum) was 12800 ng/mL and ~50 µM. For the same compound, the “oral bioavailability / serum exposure” value ([14]; mice, 50 mg kg^−1 oral dose) was “good bioavailability”, the “area under the curve” value ([14]; mice, 50 mg kg^−1 oral dose, serum) was 44000 ng·h/mL and the tolerability ([15]; increasing doses, highest dose evaluated 50 mg kg^−1 by oral gavage) was “well tolerated up to the highest dose evaluated”. For the same compound, the maximal tolerated dose ([15]; oral gavage) was over 50 mg/kg, the solubility at 1 h [16] was 121 µM (≈ 35.9 µg/mL) and the “survival of mice infected with MRSA (NRS3, FQR)” value [17] was “***P<0.005 versus vehicle and CIP; also recorded: significant survival difference relative to both CIP and vehicle-treated control; also recorded: effective in treating mice infected with MRSA”.
